Legend:
Test in all cases: KINOMEscan competition binding
Settings in all cases: compound 10.0 µM
[1] = target: STK38 (human) (UniProt Q15208)
[2] = target: TIE1 (human) (UniProt P35590)
[3] = target: HIPK2 (human) (UniProt Q9H2X6)
[4] = target: GRK7 (human) (UniProt Q8WTQ7)
[5] = target: LRRK2 (human) (UniProt Q5S007)
[6] = target: HIPK3 (human) (UniProt Q9H422)
[7] = target: CRK2 (P.falciparum) (UniProt P61075)
[8] = target: SIK3 (human) (UniProt Q9Y2K2)
[9] = target: MAP2K7 (human) (UniProt O14733)
[10] = target: TAOK2 (human) (UniProt Q9UL54)
[11] = target: PLK2 (human) (UniProt Q9NYY3)
[12] = target: PIK3C2G (human) (UniProt O75747)
[13] = target: GRK4 (human) (UniProt P32298)
[14] = target: NIM1 (human) (UniProt Q8IY84)
[15] = system: PIK3CA (human), P42336 [E545K]
[16] = target: ICK (human) (UniProt Q9UPZ9)
[17] = target: EIF2AK1 (human) (UniProt Q9BQI3)
[18] = target: MAST1 (human) (UniProt Q9Y2H9)
[19] = target: DDR1 (human) (UniProt Q08345)
[20] = target: VRK2 (human) (UniProt Q86Y07)
[21] = target: MATK (human) (UniProt P42679)
[22] = target: CDK4 CCND3 (human) (UniProt P11802+P30281)
[23] = target: SNRK (human) (UniProt Q9NRH2)
[24] = target: GRK1 (human) (UniProt Q15835)
[25] = system: PIK3CA (human), P42336 [I800L]
[26] = target: DYRK2 (human) (UniProt Q92630)
[27] = target: BRAF (human) (UniProt P15056)
[28] = target: MAP3K6 (human) (UniProt O95382)
[29] = target: IRAK1 (human) (UniProt P51617)
[30] = system: PIK3CA (human), P42336 [C420R]
[31] = target: MAP2K5 (human) (UniProt Q13163)
[32] = target: CDKL3 (human) (UniProt Q8IVW4)
[33] = target: CDKL1 (human) (UniProt Q00532)
[34] = target: PRKCI (human) (UniProt P41743)
[35] = target: PIK3CA (human) (UniProt P42336)
[36] = target: BTK (human) (UniProt Q06187)
[37] = target: PIK3CG (human) (UniProt P48736)
[38] = target: KIT (human) (UniProt P10721)

SIK3 (human), sequence (Q9Y2K2 whole entry, looked up): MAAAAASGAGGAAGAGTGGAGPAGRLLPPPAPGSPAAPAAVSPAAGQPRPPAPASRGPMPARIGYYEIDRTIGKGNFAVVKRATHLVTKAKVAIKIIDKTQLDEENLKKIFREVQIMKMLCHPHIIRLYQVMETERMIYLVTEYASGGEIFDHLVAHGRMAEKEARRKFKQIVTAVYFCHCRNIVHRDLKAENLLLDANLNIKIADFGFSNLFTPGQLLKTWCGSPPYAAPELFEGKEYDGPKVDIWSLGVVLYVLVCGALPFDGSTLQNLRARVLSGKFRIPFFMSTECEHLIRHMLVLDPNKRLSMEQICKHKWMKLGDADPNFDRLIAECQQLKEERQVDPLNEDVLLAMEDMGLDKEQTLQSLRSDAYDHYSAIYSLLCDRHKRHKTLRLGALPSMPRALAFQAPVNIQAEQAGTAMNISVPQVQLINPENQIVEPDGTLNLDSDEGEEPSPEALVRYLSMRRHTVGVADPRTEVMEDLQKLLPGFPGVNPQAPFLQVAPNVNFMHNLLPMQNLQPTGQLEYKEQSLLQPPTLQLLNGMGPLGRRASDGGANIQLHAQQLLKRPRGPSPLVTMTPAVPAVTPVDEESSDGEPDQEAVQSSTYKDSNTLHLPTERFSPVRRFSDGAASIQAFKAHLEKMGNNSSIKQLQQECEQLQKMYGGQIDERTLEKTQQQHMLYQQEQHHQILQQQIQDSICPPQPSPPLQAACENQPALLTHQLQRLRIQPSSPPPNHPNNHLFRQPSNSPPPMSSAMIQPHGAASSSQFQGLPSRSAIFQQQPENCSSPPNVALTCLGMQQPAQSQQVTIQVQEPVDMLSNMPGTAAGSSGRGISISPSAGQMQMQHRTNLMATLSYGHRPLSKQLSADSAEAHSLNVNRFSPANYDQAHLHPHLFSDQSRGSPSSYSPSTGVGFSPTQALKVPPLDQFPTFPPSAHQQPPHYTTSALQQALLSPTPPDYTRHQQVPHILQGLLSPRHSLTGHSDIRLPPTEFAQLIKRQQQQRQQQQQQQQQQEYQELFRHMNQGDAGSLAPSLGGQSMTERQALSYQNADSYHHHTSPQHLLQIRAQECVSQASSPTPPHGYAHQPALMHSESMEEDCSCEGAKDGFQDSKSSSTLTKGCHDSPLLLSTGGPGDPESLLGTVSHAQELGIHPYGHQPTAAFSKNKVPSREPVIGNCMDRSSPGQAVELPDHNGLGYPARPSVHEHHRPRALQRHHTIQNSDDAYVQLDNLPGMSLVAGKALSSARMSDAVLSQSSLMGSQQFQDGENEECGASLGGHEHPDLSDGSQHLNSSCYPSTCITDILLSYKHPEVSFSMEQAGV
MATK (human), sequence (P42679 whole entry, looked up): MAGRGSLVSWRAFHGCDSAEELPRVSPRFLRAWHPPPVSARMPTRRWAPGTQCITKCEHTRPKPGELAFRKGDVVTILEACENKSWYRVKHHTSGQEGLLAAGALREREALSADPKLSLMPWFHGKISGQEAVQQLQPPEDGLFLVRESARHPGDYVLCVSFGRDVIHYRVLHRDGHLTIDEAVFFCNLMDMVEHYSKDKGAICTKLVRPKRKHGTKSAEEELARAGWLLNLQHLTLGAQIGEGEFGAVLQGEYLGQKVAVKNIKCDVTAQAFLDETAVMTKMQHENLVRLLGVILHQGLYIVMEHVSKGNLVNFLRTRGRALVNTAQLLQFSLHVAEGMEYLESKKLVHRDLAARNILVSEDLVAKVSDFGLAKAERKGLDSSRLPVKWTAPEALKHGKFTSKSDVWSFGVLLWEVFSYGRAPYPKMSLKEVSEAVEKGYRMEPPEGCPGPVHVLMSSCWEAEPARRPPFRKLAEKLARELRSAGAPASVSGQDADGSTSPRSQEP
PIK3CG (human), sequence (P48736 whole entry, looked up): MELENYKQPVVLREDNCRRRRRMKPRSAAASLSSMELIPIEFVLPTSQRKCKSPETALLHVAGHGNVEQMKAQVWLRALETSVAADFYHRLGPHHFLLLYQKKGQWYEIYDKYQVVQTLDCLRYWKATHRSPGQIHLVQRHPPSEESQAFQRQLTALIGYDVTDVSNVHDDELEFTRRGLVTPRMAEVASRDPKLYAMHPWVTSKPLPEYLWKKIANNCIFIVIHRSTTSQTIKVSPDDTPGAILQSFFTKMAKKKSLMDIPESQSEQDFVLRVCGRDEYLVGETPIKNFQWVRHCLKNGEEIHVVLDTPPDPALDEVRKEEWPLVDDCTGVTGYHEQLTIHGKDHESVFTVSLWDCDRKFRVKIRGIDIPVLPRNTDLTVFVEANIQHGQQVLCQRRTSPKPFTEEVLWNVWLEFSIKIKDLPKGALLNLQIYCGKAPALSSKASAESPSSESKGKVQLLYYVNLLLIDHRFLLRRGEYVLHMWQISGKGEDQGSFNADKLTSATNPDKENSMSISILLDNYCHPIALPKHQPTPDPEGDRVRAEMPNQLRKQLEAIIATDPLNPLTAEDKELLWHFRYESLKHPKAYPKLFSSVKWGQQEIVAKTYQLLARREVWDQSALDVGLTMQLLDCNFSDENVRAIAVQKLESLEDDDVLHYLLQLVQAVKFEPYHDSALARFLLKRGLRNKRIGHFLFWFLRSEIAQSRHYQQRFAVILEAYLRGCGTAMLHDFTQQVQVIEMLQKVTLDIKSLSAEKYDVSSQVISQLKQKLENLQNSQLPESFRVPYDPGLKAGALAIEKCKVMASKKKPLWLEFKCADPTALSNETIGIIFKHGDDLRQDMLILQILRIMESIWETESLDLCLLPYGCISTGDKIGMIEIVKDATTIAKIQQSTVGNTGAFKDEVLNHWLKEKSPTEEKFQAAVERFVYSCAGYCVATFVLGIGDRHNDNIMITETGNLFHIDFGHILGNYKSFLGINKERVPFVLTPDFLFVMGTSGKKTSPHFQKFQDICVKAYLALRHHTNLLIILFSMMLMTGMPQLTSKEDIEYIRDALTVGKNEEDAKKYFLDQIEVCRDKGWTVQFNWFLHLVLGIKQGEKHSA
MAP2K5 (human), sequence (Q13163 whole entry, looked up): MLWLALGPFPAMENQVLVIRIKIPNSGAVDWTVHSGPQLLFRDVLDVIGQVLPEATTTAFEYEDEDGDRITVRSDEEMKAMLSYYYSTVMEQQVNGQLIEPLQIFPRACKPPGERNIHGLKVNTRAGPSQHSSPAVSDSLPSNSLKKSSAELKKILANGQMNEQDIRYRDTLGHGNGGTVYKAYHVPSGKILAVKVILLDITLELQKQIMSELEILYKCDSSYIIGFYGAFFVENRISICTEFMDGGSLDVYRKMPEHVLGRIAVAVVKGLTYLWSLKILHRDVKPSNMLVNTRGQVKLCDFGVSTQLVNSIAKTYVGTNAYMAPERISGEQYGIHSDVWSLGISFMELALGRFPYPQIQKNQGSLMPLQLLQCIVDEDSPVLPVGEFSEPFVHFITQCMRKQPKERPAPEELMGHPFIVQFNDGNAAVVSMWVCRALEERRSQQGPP
GRK1 (human), sequence (Q15835 whole entry, looked up): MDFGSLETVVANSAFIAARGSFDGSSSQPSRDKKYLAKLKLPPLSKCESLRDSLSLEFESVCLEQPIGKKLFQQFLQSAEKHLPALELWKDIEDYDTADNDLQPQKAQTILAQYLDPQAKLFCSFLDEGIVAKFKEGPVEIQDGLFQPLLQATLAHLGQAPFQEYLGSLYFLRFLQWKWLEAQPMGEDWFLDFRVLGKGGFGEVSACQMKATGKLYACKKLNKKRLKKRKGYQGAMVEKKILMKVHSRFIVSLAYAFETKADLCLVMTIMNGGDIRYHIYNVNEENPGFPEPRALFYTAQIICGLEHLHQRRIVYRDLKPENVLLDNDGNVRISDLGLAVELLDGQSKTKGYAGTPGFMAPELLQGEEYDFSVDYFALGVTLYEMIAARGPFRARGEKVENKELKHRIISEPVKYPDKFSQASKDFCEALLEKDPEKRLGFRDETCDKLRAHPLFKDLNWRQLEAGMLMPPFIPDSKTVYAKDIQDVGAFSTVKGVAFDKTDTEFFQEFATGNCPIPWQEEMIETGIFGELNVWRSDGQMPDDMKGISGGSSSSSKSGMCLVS
SNRK (human), sequence (Q9NRH2 whole entry, looked up): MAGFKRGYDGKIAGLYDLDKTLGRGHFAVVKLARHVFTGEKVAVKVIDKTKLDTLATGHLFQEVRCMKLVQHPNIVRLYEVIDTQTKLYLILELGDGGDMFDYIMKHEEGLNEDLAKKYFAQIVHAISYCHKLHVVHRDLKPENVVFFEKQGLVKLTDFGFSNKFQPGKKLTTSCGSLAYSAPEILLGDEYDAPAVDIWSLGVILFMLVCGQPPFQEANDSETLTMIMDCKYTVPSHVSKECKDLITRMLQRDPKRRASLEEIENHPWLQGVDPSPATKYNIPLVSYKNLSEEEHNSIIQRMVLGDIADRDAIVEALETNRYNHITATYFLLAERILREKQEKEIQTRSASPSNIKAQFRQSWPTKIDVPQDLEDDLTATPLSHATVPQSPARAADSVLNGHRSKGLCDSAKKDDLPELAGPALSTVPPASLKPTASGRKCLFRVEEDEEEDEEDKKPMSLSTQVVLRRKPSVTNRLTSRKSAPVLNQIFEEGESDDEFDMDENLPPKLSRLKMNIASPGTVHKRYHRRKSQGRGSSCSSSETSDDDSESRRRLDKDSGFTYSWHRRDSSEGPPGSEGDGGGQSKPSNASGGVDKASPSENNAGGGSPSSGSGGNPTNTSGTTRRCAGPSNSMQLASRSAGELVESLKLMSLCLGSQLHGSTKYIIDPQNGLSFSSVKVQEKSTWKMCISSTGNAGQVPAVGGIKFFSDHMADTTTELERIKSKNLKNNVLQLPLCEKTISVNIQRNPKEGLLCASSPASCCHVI
CDKL1 (human), sequence (Q00532 whole entry, looked up): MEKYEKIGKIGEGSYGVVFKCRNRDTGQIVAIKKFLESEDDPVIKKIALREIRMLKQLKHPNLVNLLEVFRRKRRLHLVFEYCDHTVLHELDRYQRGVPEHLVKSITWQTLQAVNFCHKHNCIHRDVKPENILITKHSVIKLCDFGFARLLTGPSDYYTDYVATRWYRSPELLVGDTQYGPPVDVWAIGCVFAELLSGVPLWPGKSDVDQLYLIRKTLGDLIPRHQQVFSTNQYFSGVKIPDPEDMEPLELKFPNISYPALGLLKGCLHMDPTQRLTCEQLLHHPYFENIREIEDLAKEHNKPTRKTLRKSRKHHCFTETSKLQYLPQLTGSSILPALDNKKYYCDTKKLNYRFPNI

Compound	kinase still bound, per cent of control [1]	kinase still bound, per cent of control [4]	kinase still bound, per cent of control [5]	kinase still bound, per cent of control [7]	kinase still bound, per cent of control [8]	kinase still bound, per cent of control [9]	kinase still bound, per cent of control [10]	kinase still bound, per cent of control [11]	kinase still bound, per cent of control [12]	kinase still bound, per cent of control [13]	kinase still bound, per cent of control [14]	kinase still bound, per cent of control [16]	kinase still bound, per cent of control [17]	kinase still bound, per cent of control [18]	kinase still bound, per cent of control [20]	kinase still bound, per cent of control [21]	kinase still bound, per cent of control [22]	kinase still bound, per cent of control [23]	kinase still bound, per cent of control [24]	kinase still bound, per cent of control [27]	other results
CCC(=O)N1CCN(c2ccc(-n3c(=O)ccc4cnc5ccc(-c6cnc7ccccc7c6)cc5c43)cc2C(F)(F)F)CC1	100%	100%	81%	97%	89%	100%	84%	85%	11%	90%	84%	100%	57%	93%	100%	97%	87%	60%	99%	59%	kinase still bound, per cent of control [2]: 100%; kinase still bound, per cent of control [3]: 58%; kinase still bound, per cent of control [6]: 86%; kinase still bound, per cent of control [15]: 0.6%; kinase still bound, per cent of control [19]: 100%; kinase still bound, per cent of control [25]: 0%; kinase still bound, per cent of control [26]: 86%; kinase still bound, per cent of control [28]: 100%; kinase still bound, per cent of control [29]: 100%; kinase still bound, per cent of control [30]: 0.7%; kinase still bound, per cent of control [31]: 100%; kinase still bound, per cent of control [32]: 92%; kinase still bound, per cent of control [33]: 100%; kinase still bound, per cent of control [34]: 85%
O=C(O)c1ccc(Nc2ncc3c(n2)-c2ccc(Cl)cc2C(c2c(F)cccc2F)=NC3)cc1	100%	31%	82%	100%	98%	100%	94%	29%	16%	100%	100%	86%	89%	100%	100%	84%	100%	74%	100%	100%	kinase still bound, per cent of control [3]: 100%; kinase still bound, per cent of control [6]: 80%; kinase still bound, per cent of control [15]: 100%; kinase still bound, per cent of control [35]: 100%; kinase still bound, per cent of control [36]: 28%; kinase still bound, per cent of control [25]: 84%; kinase still bound, per cent of control [37]: 100%; kinase still bound, per cent of control [28]: 99%; kinase still bound, per cent of control [29]: 93%; kinase still bound, per cent of control [30]: 67%; kinase still bound, per cent of control [31]: 80%; kinase still bound, per cent of control [32]: 100%; kinase still bound, per cent of control [33]: 100%; kinase still bound, per cent of control [34]: 100%
CCOc1cc2ncc(C#N)c(Nc3ccc(OCc4ccccn4)c(Cl)c3)c2cc1NC(=O)/C=C/CN(C)C	81%	100%	99%	100%	73%	49%	92%	85%	100%	68%	90%	100%	100%	100%	67%	71%	78%	51%	84%	95%	kinase still bound, per cent of control [3]: 65%; kinase still bound, per cent of control [35]: 86%; kinase still bound, per cent of control [36]: 4.4%; kinase still bound, per cent of control [38]: 80%; kinase still bound, per cent of control [37]: 91%; kinase still bound, per cent of control [26]: 64%; kinase still bound, per cent of control [28]: 87%; kinase still bound, per cent of control [29]: 65%; kinase still bound, per cent of control [31]: 1.8%; kinase still bound, per cent of control [32]: 100%; kinase still bound, per cent of control [33]: 100%; kinase still bound, per cent of control [34]: 90%
O=C(NOC[C@H](O)CO)c1ccc(F)c(F)c1Nc1ccc(I)cc1F	100%	100%	86%	100%	52%	100%	100%	100%	48%	100%	100%	84%	100%	100%	100%	100%	84%	100%	100%	98%	kinase still bound, per cent of control [2]: 54%; kinase still bound, per cent of control [6]: 49%; kinase still bound, per cent of control [15]: 53%; kinase still bound, per cent of control [35]: 56%; kinase still bound, per cent of control [36]: 87%; kinase still bound, per cent of control [19]: 50%; kinase still bound, per cent of control [38]: 92%; kinase still bound, per cent of control [25]: 33%; kinase still bound, per cent of control [37]: 88%; kinase still bound, per cent of control [26]: 95%; kinase still bound, per cent of control [28]: 95%; kinase still bound, per cent of control [29]: 100%; kinase still bound, per cent of control [30]: 50%; kinase still bound, per cent of control [31]: 86%; kinase still bound, per cent of control [32]: 98%; kinase still bound, per cent of control [33]: 78%; kinase still bound, per cent of control [34]: 70%

Reference: the kinase profiling compilation of Christmann-Franck et al. (2016)
